Test results reported in patent publication US5068325A, “4,5,7,8-tetrahydro-6H-thiazolo[5,4-d]azepines, their preparation and their use as pharmaceutical compositions” (priority 1988, dated 1991).

What was measured:
[1] = biological target: dopamine D2-receptors (Rattus norvegicus, UniProt P61169); assay: affinity for dopamine D2-receptors by displacement experiments with [3H]-spiperone (rat striatum membranes); assay type: binding; conditions: for Ki: [3H]-spiperone, high-affinity form of the dopamine receptor; for α2-IC50 / D2-Ki: relative affinity for dopamine-D2 receptors compared with α2-adrenoceptors, the higher, the higher the D2/α2 selectivity
Description: 1Determining the affinity for dopamine D2-receptors by displacement experiments with [^3 H]-spiperone (Modified Method of W. Billard et al., Life Sci. 35, 1885 (1984) and D. J. de Vries and P. M. Beart, Eur. J. Pharmacol. 109, 417 (1985))
Male rats (of the Chbb:Thom strain weighing about 200 g) were killed by a blow to the back of the neck. The brains were removed and dissected on ice. The striata were dissected out, weighed and homogenised in 25 volumes of tris buffer (50 mM tris-HCl, 1 mM EDTA, 5 mM MgCl2 and 1 mM ascorbic acid) for 30 seconds in an Ultra-Turrax at maximum speed, followed by 10 cycles in a Potter-Elvehjem at 1400 rpm. The pellet obtained after centrifuging at 50,000×g at 4° C. for 15 minutes was again taken up in 25 ml of tris buffer and centrifuged under the above conditions. The supernatant was discarded and the pellet obtained was incubated in 25 ml of tris buffer at 37° C. for 30 minutes and then centrifuged again at 50,000×g at 4° C. for 15 minutes. Finally, the pellet obtained was mixed with tris buffer to obtain a homogenate dilution of 1:500 (based on the weight of the striata).
1 ml aliquots of the membrane preparation were incubated with 1 ml of a solution of 0.25 nM [^3 H]-spiperone ([…], Messrs. DuPont NEN) and at increasing concentrations of the test substance (10^-11 to 10^-4 M) at ambient temperature for one hour. Incubation was ended by the addition of 5 ml of ice cold tris buffer and filtration using Whatman GF/B filters. The filters were washed twice, each time with 5 ml of ice cold buffer. The radioactivity of the filters was determined by liquid scintillation measurement in Instagel^(R) (Messrs. Canberra Packard). Non-specific binding was determined in the presence of 10^-5 M haloperidol (Sigma Chemical Co.).
Displacement curves were obtained from the data using the TOPFIT programming package (G. Heinzel in "Pharmacokinetics During Drug Development: Data Analysis and Evaluation Techniques", G. Bozler and J. M. van Rossum Eds., G. Fischer Verlag, Stuttgart 1982, 207).

[2] = biological target: T1, alpha-2 receptors (Rattus norvegicus, UniProt P22909); assay: affinity for alpha-2 receptors by displacement experiments with [3H]-clonidine (rat cortex membranes); assay type: binding; conditions: read-out: α2-IC50
T1 sequence (P22909 1-465): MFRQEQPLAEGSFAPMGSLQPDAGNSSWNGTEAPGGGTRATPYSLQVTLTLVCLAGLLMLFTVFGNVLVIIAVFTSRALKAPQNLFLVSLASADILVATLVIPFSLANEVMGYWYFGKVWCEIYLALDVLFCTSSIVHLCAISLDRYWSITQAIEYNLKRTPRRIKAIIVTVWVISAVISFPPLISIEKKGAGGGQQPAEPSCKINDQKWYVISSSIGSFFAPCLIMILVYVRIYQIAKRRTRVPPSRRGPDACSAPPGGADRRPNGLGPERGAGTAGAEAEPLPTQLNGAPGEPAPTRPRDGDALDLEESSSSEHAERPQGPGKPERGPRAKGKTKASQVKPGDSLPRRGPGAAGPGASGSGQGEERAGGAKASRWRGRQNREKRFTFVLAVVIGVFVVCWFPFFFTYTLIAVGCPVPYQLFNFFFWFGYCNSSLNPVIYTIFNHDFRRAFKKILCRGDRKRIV
Description: Determination of the affinity for alpha-2 receptors by displacement experiments with [^3 H] clonidine (Modified Method of B. Jarrott, W. J. Louis and R. J. Summers, Biochem. Pharmacol. 27, 141 (1979))
A male rat (Chbb:Thom strain weighing about 200 g) was killed by a blow to the back of the neck. The brain was removed and the cortex dissected out, weighed and homogenised in 25 volumes of tris buffer (50 mM tris- HCl, pH 7.50) for 30 seconds in an Ultra-Turrax at maximum speed, followed by 10° Cycles in a Potter- Elvehjem at 1400 rpm. The homogenised material was combined with tris buffer to obtain a homogenate dilution of 1:50 (based on the weight of the cortex).
1 ml aliquots of the membrane preparation were incubated for three hours at ambient temperature with 1 ml of a solution of 1 nM of [^3 H]-clonidine (2.2 TBq/mmol, Messrs. DuPont NEN) and with increasing concentrations of the test substance (10^-11 to 10^-4 M). Incubation was ended by the addition of 5 ml of ice-cold tris buffer and filtration through Whatman GF/B filters. The filters were washed twice, each time with 5 ml of ice cold buffer. The radioactivity of the filters was determined by liquid scintillation measurement in Instagel(R) (Messrs. Canberra Packard). The non-specific binding was determined in the presence of 10^-5 M of oxymetazoline (Sigma Chemical Co.).

[3] = system: MPTP monkeys; assay: post-synaptic dopaminergic activity in MPTP monkeys; assay type: in vivo, rhesus monkey; conditions: for minimal effective dose: Primates, in Macaca mulatta, im, rhesus monkeys, i.m., read-out: minimum dose (MED) required to alleviate the Parkinson's symptoms; for effect on MPTP-induced symptoms: MPTP-treated rhesus monkeys
Description: 6. Determining the post-synaptic dopaminergic activity in MPTP monkeys (Modified Method of R. S. Burns et al., Proc. Natl. Acad. Sci. 80. 4546 (1983))
The neurotoxin 1-methyl-4-phenyl-1,2,3,6- tetrahydro-pyridine (MPTP) produces in humans and monkeys an irreversible syndrome which in its clinical, pathological, biochemical and pharmacological appearance is very similar to idiopathic Parkinson's disease (Markey et al., Nature 311, 464 (1984)). The reason for this similarity is that MPTP selectively destroys those dopaminergic nerve cells in the substantia nigra of the brain which are also lost by degenerative processes in Parkinson's disease. There is even some discussion that MPTP or an MPTP-like substance might be formed in the body and trigger Parkinson's disease (S. H. Snyder, Nature 311, 514 (1984)). Possibly because of the specific MPTP metabolism, the clinical formation of the MPTP-induced Parkinson syndrome has hitherto been detected only in humans and monkeys. The MPTP model produced in the rhesus monkey is therefore exceptionally suitable for testing the activity of post-synaptically acting dopamine agonists. For this purpose, rhesus monkeys were given MPTP in overall doses of up to about 6 mg/kg of body weight, until the following symptoms appeared: The animals were akinetic and unable to take water and food.
It is clear that with the compounds according to the invention there is no sedative effect or ataxia at a dosage which is several times the MED, which can be put down to the absence of a corresponding activity mediated by the α2- receptors.

Chain of dopamine D2-receptors (P61169 whole entry): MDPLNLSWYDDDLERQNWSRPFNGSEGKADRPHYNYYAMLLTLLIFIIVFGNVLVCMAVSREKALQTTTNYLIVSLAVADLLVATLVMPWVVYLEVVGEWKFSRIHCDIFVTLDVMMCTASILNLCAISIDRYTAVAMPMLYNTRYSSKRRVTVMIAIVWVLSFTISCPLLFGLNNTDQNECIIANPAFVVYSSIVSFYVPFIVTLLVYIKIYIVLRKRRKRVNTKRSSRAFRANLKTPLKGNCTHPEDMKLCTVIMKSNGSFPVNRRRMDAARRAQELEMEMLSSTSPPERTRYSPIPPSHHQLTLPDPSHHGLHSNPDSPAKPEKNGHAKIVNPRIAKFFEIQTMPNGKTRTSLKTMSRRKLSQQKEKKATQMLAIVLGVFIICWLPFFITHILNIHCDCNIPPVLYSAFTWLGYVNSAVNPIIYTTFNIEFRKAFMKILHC

Row | SMILES | Ki [1] [nM] | α2-IC50 / D2-Ki [1] | IC50 [2] [nM] | other results
1 | CC(C)COc1ccc(C=CCN2CCc3nc(N)sc3CC2)cc1 [Example 8n, 2-Amino-6-(3-(4-isobutoxy-phenyl)allyl)-4,5,7,8-tetrahydro-6H-thiazolo[5,4-d]azepine] | 15 | 133 | 2000 | –
2 | Nc1nc2c(s1)CCN(CC=Cc1ccccc1[N+](=O)[O-])CC2 [Example 4g, 2-Amino-6-(3-(2-nitro-phenyl)allyl)-4,5,7,8-tetrahydro-6H-thiazolo[5,4-d]azepine] | 2 | 120 | 240 | –
3 | Cc1cccnc1C=CCN1CCc2nc(N)sc2CC1 [Example 11i, 2-Amino-6-(3-(3-methyl-2-pyridyl)allyl)-4,5,7,8-tetrahydro-6H-thiazolo[5,4-d]azepine] | 2.6 | 576 | 1500 | Duration of activity ([3]; 0.05 mg/kg i.m. (MED)): ~ 1.5 hours; Side effects ([3]; 0.05 mg/kg i.m. (MED)): none; Duration of activity ([3]; 0.20 mg/kg i.m.): 2.0 to 5 h; Side effects ([3]; 0.20 mg/kg i.m.): none; minimal effective dose [3]: 0.05 mg/kg
4 | COc1ccc(OC)c(C=CCN2CCc3nc(N)sc3CC2)c1 [Example 4p, 2-Amino-6-(3-(2,5-dimethoxy-phenyl)allyl)-4,5,7,8-tetrahydro-6H-thiazolo[5,4-d]azepine] | 0.89 | 100 | 89 | Duration of activity ([3]; 0.05 mg/kg i.m. (MED)): ~ 2 hours; Side effects ([3]; 0.05 mg/kg i.m. (MED)): none; Duration of activity ([3]; 0.30 mg/kg i.m.): 2.0 to 5 h; Side effects ([3]; 0.30 mg/kg i.m.): none; minimal effective dose [3]: 0.05 mg/kg
5 | Cl.Cl.Nc1nc2c(s1)CCN(CCCc1ccccc1)CC2 [Example 3b, 2-Amino-6-(3-phenyl-propyl)-4,5,7,8-tetrahydro-6H-thiazolo[5,4-d]azepine-dihydrochloride] | 24 | 145 | 810 | –
6 | Nc1nc2c(s1)CCN(CC=Cc1ccc(Cl)cc1)CC2 [Example 3a, 2-Amino-6-(3-(4-chloro-phenyl)allyl)-4,5,7,8-tetrahydro-6H-thiazolo[5,4-d]azepine] | 7 | 88 | 620 | –
7 | CN1CCc2cccc3c2[C@H]1Cc1ccc(O)c(O)c1-3 [apomorphine, reference compound] | – | – | – | effect on MPTP-induced symptoms [3]: temporary cessation of this phenomenon
8 | N[C@@H](Cc1ccc(O)c(O)c1)C(=O)O [levodopa, reference compound] | – | – | – | effect on MPTP-induced symptoms [3]: temporary cessation of this phenomenon
9 | Nc1nc2c(s1)CCN(CC=Cc1ccccc1Cl)CC2 [Example 4e, 2-Amino-6-(3-(2-chloro-phenyl)allyl)-4,5,7,8-tetrahydro-6H-thiazolo[5,4-d]azepine] | 3 | 63 | 190 | –

Second part, led by results:

Row | Ki [1] [nM] | α2-IC50 / D2-Ki [1] | IC50 [2] [nM] | SMILES | other results
10 | 8 | 287 | 2300 | Nc1nc2c(s1)CCN(CC=Cc1ccccc1-c1ccccc1)CC2 [Example 4v, 2-Amino-6-(3-(2-biphenyl)allyl)-4,5,7,8-tetrahydro-6H-thiazolo[5,4-d]azepine] | –
11 | 3.2 | 256 | 820 | Nc1nc2c(s1)CCN(CC=Cc1cccc(Cl)n1)CC2 [Example 11, 2-Amino-6-(3-(6-chloro-2-pyridyl)allyl)-4,5,7,8-tetrahydro-6H-thiazolo[5,4-d]azepine] | –
12 | 13 | 157 | 2050 | Nc1nc2c(s1)CCN(CC=Cc1ccc([N+](=O)[O-])cc1)CC2 [Example 4i, 2-Amino-6-(3-(4-nitro-phenyl)allyl)-4,5,7,8-tetrahydro-6H-thiazolo[5,4-d]azepine] | –
13 | 14 | 235 | 3300 | Nc1nc2c(s1)CCN(CC(=Cc1ccccc1)c1ccccc1)CC2 [Example 8o] | –
14 | 6.7 | 79 | 530 | Cc1nc(C=CCN2CCc3nc(N)sc3CC2)cs1 [Example 9, 2-Amino-6-(3-(2-methyl-4-thiazolyl)allyl)-4,5,7,8,-tetrahydro-6H-thiazolo[5,4-d]azepine-semihydrate] | –
15 | 8.4 | 452 | 3800 | Nc1nc2c(s1)CCN(CC=Cc1ccc(OCc3ccccc3)cc1)CC2 [Example 4z, 2-Amino-6-(3-(4-benzyloxy-phenyl)allyl)-4,5,7,8-tetrahydro-6H-thiazolo[5,4-d]azepine] | –
16 | 1.3 | 423 | 550 | COc1cccc(C=CCN2CCc3nc(N)sc3CC2)c1OC [Example 4o, 2-Amino-6-(3-(2,3-dimethoxy-phenyl)allyl)-4,5,7,8-tetrahydro-6H-thiazolo[5,4-d]azepine] | –
17 | 0.95 | 621 | 590 | Nc1nc2c(s1)CCN(CC=Cc1ccccc1O)CC2 [Example 15, 2-Amino-6-(3-(2-hydroxy-phenyl)allyl)-4,5,7,8-tetrahydro-6H-thiazolo[5,4-d]azepine] | –
18 | 1.4 | 285 | 400 | Nc1nc2c(s1)CCN(CC=Cc1ccccc1N)CC2 [Example 16, 2-Amino-6-(3-(2-amino-phenyl)allyl)-4,5,7,8-tetrahydro-6H-thiazolo[5,4-d]azepine] | –
19 | 17 | 882 | 15000 | Nc1nc2c(s1)CCN(CC#Cc1ccccn1)CC2 [Example 10, 2-Amino-6-(3-(2-pyridyl)-2-propyn-1-yl)-4,5,7,8-tetrahydro-6H-thiazolo[5,4-d]azepine] | –
